As a reminder, the MIC is the least concentration at which growth counts as inhibited.

Values after ≈ are worked out from the molar mass of the structure shown.

This is an account of results in patent publication US6426369B1, “Oxethazaine as antimicrobial agent” (Eisai Co., Ltd., priority 1997, dated 2002).

The subject of one experiment is Gram-positive bacteria. The experiment is described as follows: Antimicrobial activity (MIC) of oxethazaine and structure analogues against Gram-positive bacteria. Type of experiment: cell-based.
Experiment [1] deals with H. pylori. Kind of experiment: Antimicrobial activity test 6: oxethazaine in combination with an antibiotic (AMPC, CAM, RXM), checker board method. Type of experiment: cell-based, Helicobacter pylori. As to conditions: combined use with oxethazaine; out of 15 strains (AMPC), 21 strains (CAM), 22 strains (RXM). An excerpt: The effect of combined use with amoxicillin (AMPC), clarithromycin (CAM) or roxithromycin (RXM) was examined in the same manner as in antimicrobial activity test 1, using the checker board method.

Experiment [2] has as its system H. pylori. Kind of experiment: Antimicrobial activity test 1: anti-H. pylori activity of a single compound (agar plate method). As to conditions: Helicobacter pylori, read-out: MIC (growth inhibition). The format is cell-based, Helicobacter pylori.
Experiment [3] deals with H. pylori. The experiment is described as follows: Antimicrobial activity test 3: oxethazaine in combination with compound (II), checker board method. Type of experiment: cell-based. As to conditions: Helicobacter pylori. An excerpt: In each Table, the concentration of oxethazaine is shown vertically, and the concentration of compound (II) is shown horizontally. In each Table, “−” indicates the inhibited growth of H. pylori (presence of antimicrobial activity), and “+” indicates the growth of H. pylori (absence of antimicrobial activity). […] It is assumed to be present when the MIC of either oxethazaine or PPI is reduced by ½ (when anti-H. pylori activity is not recognized when the concentrations of both oxethazaine and PPI are reduced to ¼, but anti-H. pylori activity is recognized when the concentration of one compound is reduced to ¼ and simultaneously the concentration of the other compound is reduced to ½.).

The subject of experiment [4] is H. pylori. The settings on record: PPI alone, 30 mg/day, 8 weeks; cited from earlier work.
In experiment [5] the test system is H. pylori. Kind of experiment: Antimicrobial activity test 2: time for sterilizing H. pylori (viable cell count in Brucella broth). The format is cell-based, Helicobacter pylori. The settings on record: NCTC 11637. As to the method: A solution of the test compound was added to Brucella broth containing 5% fetal bovine serum, cultured under slightly aerobic conditions at 37° C., and the vial microbe cell number in Brucella agar containing 7% horse blood was counted at predetermined intervals. The above compound (1) was dissolved in a 1% aqueous solution of […] (DMSO), and the above compound (2) was dissolved in water to prepare a solution of each test compound. “cfu” in Tables and Figures means “colony forming unit”.

The mark [6] stands for this setting: strain 90-397 (first line, r19).
Where [7] appears, read: strain 90-397 (second line, r25).

Regarding `CCOC(=O)c1ccc(N)cc1` [(A)], the “antimicrobial activity (MIC)” value in the experiment with Gram-positive bacteria (E. faecalis RIMD 3116001), with Gram-positive bacteria (S. aureus FDA 209-P) and with Gram-positive bacteria (S. epidermidis ATCC 12228) was >100 µg/mL in each case.

Turning to `CCOC(=O)c1ccc(NC(=O)CN2CCCCC2)cc1` [(B)], the “antimicrobial activity (MIC)” value in the experiment on Gram-positive bacteria (E. faecalis RIMD 3116001), in the experiment with Gram-positive bacteria (S. aureus FDA 209-P) and in the experiment on Gram-positive bacteria (S. epidermidis ATCC 12228) was >100 µg/mL throughout.

In the case of `CCN(CC)CCOC(=O)c1ccc(N)cc1.Cl` [(C)], the “antimicrobial activity (MIC)” value in the experiment with Gram-positive bacteria (E. faecalis RIMD 3116001), in the experiment on Gram-positive bacteria (S. aureus FDA 209-P) and in the experiment with Gram-positive bacteria (S. epidermidis ATCC 12228) was >100 µg/mL throughout.

`CC1(C)S[C@@H]2[C@H](NC(=O)[C@H](N)c3ccc(O)cc3)C(=O)N2[C@H]1C(=O)O` [Amoxicillin, amoxicillin]: in the experiment on H. pylori [1], the “additive effect, number of strains” value was determined as 10 strains/ and the “synergism, number of strains” value is 0 strains/.

As for `COCCCOc1ccnc(CSc2nc3ccccc3[nH]2)c1C` [Compound (II), 2-[4-(3-methoxypropoxy)-3-methylpyridine-2-yl]methylthio-1H-benzimidazole], the minimum inhibitory concentration (MIC) worked out at 1.56 µg/mL (≈ 4.54 µM) in the experiment on H. pylori [2] (NCTC11637, strain NCTC11637); 0.8 µg/mL (≈ 2.33 µM) with H. pylori [2] (NCTC11639, strain NCTC11639); 1.56 µg/mL (≈ 4.54 µM) with H. pylori [2] (NCTC11916, strain NCTC11916); 1.56 µg/mL (≈ 4.54 µM) with H. pylori [2] (strain 89-355); 0.8 µg/mL (≈ 2.33 µM) with H. pylori [2] (strain 89-357); 1.56 µg/mL (≈ 4.54 µM) in the experiment on H. pylori [2] (strain 89-360 (1)). For the same compound, the MIC was found to be 1.56 µg/mL (≈ 4.54 µM) in the experiment on H. pylori [2] (strain 89-360); 1.56 µg/mL (≈ 4.54 µM) in the experiment on H. pylori [2] (strain 90-384); 0.8 µg/mL (≈ 2.33 µM) in the experiment with H. pylori [2] (strain 90-388 (1)); 1.56 µg/mL (≈ 4.54 µM) in the experiment with H. pylori [2] (strain 90-388); 0.8 µg/mL (≈ 2.33 µM) with H. pylori [2] (strain 90-390 (1)); 0.8 µg/mL (≈ 2.33 µM) in the experiment with H. pylori [2] (strain 90-390). The MIC worked out at 0.8 µg/mL (≈ 2.33 µM) in the experiment on H. pylori [2] (strain 90-392); 1.56 µg/mL (≈ 4.54 µM) with H. pylori [2] (setting [6]); 0.8 µg/mL (≈ 2.33 µM) in the experiment with H. pylori [2] (setting [7]); 0.8 µg/mL (≈ 2.33 µM) in the experiment on H. pylori [2] (strain 90-407 (1)); 1.56 µg/mL (≈ 4.54 µM) in the experiment on H. pylori [2] (strain 90-407); 0.8 µg/mL (≈ 2.33 µM) in the experiment on H. pylori [2] (strain 90-411). In addition, the MIC came to 0.8 µg/mL (≈ 2.33 µM) in the experiment on H. pylori [2] (strain 90-414 (1)); 0.8 µg/mL (≈ 2.33 µM) with H. pylori [2] (strain 90-414); 1.56 µg/mL (≈ 4.54 µM) with H. pylori [2] (strain 90-428); 0.8 µg/mL (≈ 2.33 µM) with H. pylori [2] (strain EH12); 0.8 µg/mL (≈ 2.33 µM) with H. pylori [2] (strain EH13); 0.8 µg/mL (≈ 2.33 µM) with H. pylori [2] (strain EH16). Also, the MIC in the experiment on H. pylori [2] (strain EH26) was found to be 1.56 µg/mL (≈ 4.54 µM); with H. pylori [3] (NCTC11637, NCTC 11637) it was 1.56 µg/mL; with H. pylori [3] (NCTC11639, NCTC 11639) it was 0.8 µg/mL.

In the case of `COc1ccc2[nH]c([S+]([O-])Cc3ncc(C)c(OC)c3C)nc2c1` (stereo not drawn) [Compound (III), omeprazole], the MIC in the experiment with H. pylori [2] (NCTC11637, strain NCTC11637) was 50 µg/mL (≈ 145 µM); with H. pylori [2] (NCTC11639, strain NCTC11639), 25 µg/mL (≈ 72.4 µM); with H. pylori [2] (NCTC11916, strain NCTC11916), 50 µg/mL (≈ 145 µM); in the experiment with H. pylori [2] (strain 89-355), 25 µg/mL (≈ 72.4 µM); in the experiment with H. pylori [2] (strain 89-357), 50 µg/mL (≈ 145 µM); in the experiment with H. pylori [2] (strain 89-360) it was 50 µg/mL (≈ 145 µM). Moreover, the MIC with H. pylori [2] (strain 90-384) was 50 µg/mL (≈ 145 µM); in the experiment with H. pylori [2] (strain 90-388 (1)), 25 µg/mL (≈ 72.4 µM); in the experiment with H. pylori [2] (strain 90-388), 50 µg/mL (≈ 145 µM); in the experiment with H. pylori [2] (strain 90-390 (1)), 25 µg/mL (≈ 72.4 µM); in the experiment on H. pylori [2] (strain 90-390), 50 µg/mL (≈ 145 µM); with H. pylori [2] (strain 90-392), 25 µg/mL (≈ 72.4 µM). The MIC was determined as 25 µg/mL (≈ 72.4 µM) in the experiment with H. pylori [2] (setting [6]); 25 µg/mL (≈ 72.4 µM) in the experiment on H. pylori [2] (setting [7]); 25 µg/mL (≈ 72.4 µM) with H. pylori [2] (strain 90-407); 25 µg/mL (≈ 72.4 µM) in the experiment with H. pylori [2] (strain 90-411); 25 µg/mL (≈ 72.4 µM) in the experiment with H. pylori [2] (strain 90-414 (1)); 50 µg/mL (≈ 145 µM) in the experiment on H. pylori [2] (strain 90-414). Moreover, the MIC in the experiment with H. pylori [2] (strain 90-428) was found to be 50 µg/mL (≈ 145 µM); in the experiment on H. pylori [2] (strain EH12), 25 µg/mL (≈ 72.4 µM); in the experiment on H. pylori [2] (strain EH13) it was 25 µg/mL (≈ 72.4 µM); in the experiment on H. pylori [2] (strain EH16), 25 µg/mL (≈ 72.4 µM); in the experiment on H. pylori [2] (strain EH26), 25 µg/mL (≈ 72.4 µM).

For `Cc1c(OCC(F)(F)F)ccnc1C[S+]([O-])c1nc2ccccc2[nH]1` (stereo not drawn) [Compound (IV), lansoprazole], the MIC amounted to 12.5 µg/mL (≈ 33.8 µM) in the experiment on H. pylori [2] (NCTC11637, strain NCTC11637); 3.13 µg/mL (≈ 8.47 µM) with H. pylori [2] (NCTC11639, strain NCTC11639); 6.25 µg/mL (≈ 16.9 µM) with H. pylori [2] (NCTC11916, strain NCTC11916); 3.13 µg/mL (≈ 8.47 µM) in the experiment with H. pylori [2] (strain 89-355); 6.25 µg/mL (≈ 16.9 µM) in the experiment with H. pylori [2] (strain 89-357); 6.25 µg/mL (≈ 16.9 µM) with H. pylori [2] (strain 89-360 (1)). In addition, the MIC in the experiment on H. pylori [2] (strain 89-360) worked out at 6.25 µg/mL (≈ 16.9 µM); in the experiment on H. pylori [2] (strain 90-384), 3.13 µg/mL (≈ 8.47 µM); with H. pylori [2] (strain 90-388 (1)), 6.25 µg/mL (≈ 16.9 µM); in the experiment on H. pylori [2] (strain 90-388) it was 3.13 µg/mL (≈ 8.47 µM); in the experiment with H. pylori [2] (strain 90-390 (1)), 6.25 µg/mL (≈ 16.9 µM); in the experiment on H. pylori [2] (strain 90-390), 3.13 µg/mL (≈ 8.47 µM). Moreover, the MIC was found to be 6.25 µg/mL (≈ 16.9 µM) in the experiment with H. pylori [2] (strain 90-392); 3.13 µg/mL (≈ 8.47 µM) with H. pylori [2] (setting [6]); 6.25 µg/mL (≈ 16.9 µM) with H. pylori [2] (setting [7]); 6.25 µg/mL (≈ 16.9 µM) in the experiment with H. pylori [2] (strain 90-407 (1)); 3.13 µg/mL (≈ 8.47 µM) in the experiment on H. pylori [2] (strain 90-407); 3.13 µg/mL (≈ 8.47 µM) in the experiment on H. pylori [2] (strain 90-411). The MIC with H. pylori [2] (strain 90-414 (1)) worked out at 6.25 µg/mL (≈ 16.9 µM); in the experiment with H. pylori [2] (strain 90-414) it was 6.25 µg/mL (≈ 16.9 µM); in the experiment with H. pylori [2] (strain 90-428) it was 6.25 µg/mL (≈ 16.9 µM); in the experiment on H. pylori [2] (strain EH12) it was 3.13 µg/mL (≈ 8.47 µM); in the experiment with H. pylori [2] (strain EH13), 3.13 µg/mL (≈ 8.47 µM); with H. pylori [2] (strain EH16), 3.13 µg/mL (≈ 8.47 µM). Moreover, the MIC in the experiment on H. pylori [2] (strain EH26) came to 6.25 µg/mL (≈ 16.9 µM). Further, in the experiment with H. pylori [4], the “degree of efficacy for H. pylori therapy” value is 5%.

As to `CC1(C)S[C@@H]2[C@H](NC(=O)[C@H](N)c3ccccc3)C(=O)N2[C@H]1C(=O)O` [ampicillin], the “Viable microbe cell number” value in the experiment with H. pylori [5] (1 MIC, 0 h) stood at 6.25 log10cfu/ml; in the experiment on H. pylori [5] (1 MIC, 3 h), 5.51 log10cfu/ml; in the experiment on H. pylori [5] (1 MIC, 6 h), 4.49 log10cfu/ml; in the experiment on H. pylori [5] (1 MIC, 24 h), 3.48 log10cfu/ml; with H. pylori [5] (2 MIC, 0 h), 6.25 log10cfu/ml; in the experiment with H. pylori [5] (2 MIC, 3 h) it was 5.30 log10cfu/ml. For the same compound, the “Viable microbe cell number” value in the experiment on H. pylori [5] (2 MIC, 6 h) was determined as 4.41 log10cfu/ml; with H. pylori [5] (2 MIC, 24 h), 3.00 log10cfu/ml; with H. pylori [5] (4 MIC, 0 h) it was 6.25 log10cfu/ml; with H. pylori [5] (4 MIC, 3 h), 4.95 log10cfu/ml; in the experiment on H. pylori [5] (4 MIC, 6 h), 4.20 log10cfu/ml; in the experiment on H. pylori [5] (4 MIC, 24 h), 2.48 log10cfu/ml.
